Measured values from PubChem BioAssay AID322 (DTP/NCI, 2004).
Where “and” joins values, the source holds several entries; their conditions need not be identical. Equal entries are not always repeated. Inconclusive results and toxic doses are left out. *1 amine or outer side, *2 acyl side, *3 side chain or, on linkers, in order; H or OH if unused. Where a SMILES comes first, the peptide text is derived from it. Bridges are numbered along the chain shown (N, C = ends). Roman numbers before positions name the chains, in order. [ ]: non-standard residue; d: D form. Actinocin(9to1) = Cc1c2oc3c(C)ccc(C(=O)[*:1])c3nc-2c(C(=O)[*:2])c(N)c1=O; aThr = C[C@H](O)[C@H](N)C(=O)O; NMeV = CN[C@H](C(=O)O)C(C)C; Sar = CNCC(=O)O

Tested on: CD2F1 mice, P388/ADR leukemia ip, median survival T/C
Test: NCI In Vivo Anticancer Drug Screen. Data for tumor model P388 Leukemia resistant to Adriamycin; NSC 123127, Developed at Scr 08 (intraperitoneal) in CD2F1 (CDF1) mice
Conditions: endpoint: median survival time, higher = longer survival
Description: The antitumor activity of compounds was measured in mice bearing transplantable tumors. Survival or tumor size were measured and the results are expressed as the measurement made in the treated group (T) divided by the measurement made in the vehicle treated control group (C). The tumor model used in this assay is P388 Leukemia resistant to Adriamycin; NSC 123127, Developed at Scr 08 (intraperitoneal) in CD2F1 (CDF1) mice

[1] = dose: 25.0 mg/kg/injection, schedule: Q01DX005 (ip), vehicle: saline with Tween-80

## CNC(=O)OCc1nc(SC)n(C)c1COC(=O)NC
dose: 30.0 mg/kg/injection, schedule: Q01DX005 (ip), vehicle: saline
  T/C: 155 % of control
dose: 40.0 mg/kg/injection, schedule: Q01DX005 (ip), vehicle: saline
  T/C: 154 % of control
dose: 50.0 mg/kg/injection, schedule: Q01DX005 (ip), vehicle: saline
  T/C: 158 % of control
dose: 51.0 mg/kg/injection, schedule: Q01DX005 (ip), vehicle: saline
  T/C: 163 % of control
dose: 65.0 mg/kg/injection, schedule: Q01DX005 (ip), vehicle: saline
  T/C: 155 % of control
dose: 77.0 mg/kg/injection, schedule: Q01DX005 (ip), vehicle: saline
  T/C: 91 % of control

## NCCCN=c1ccc2c3c1c(O)c1c(O)ccc(=O)c1c3[nH]n2CCNCCO
dose: 25.0 mg/kg/injection, schedule: Q01DX001 (ip), vehicle: water
  T/C: 107 % of control

## CN1CCN(c2ccc3nc(-c4ccc5nc(-c6ccc(O)cc6)[nH]c5c4)[nH]c3c2)CC1
dose: 44.0 mg/kg/injection, schedule: Q01DX009 (ip), vehicle: saline
  T/C: 118 % of control
dose: 67.0 mg/kg/injection, schedule: Q01DX009 (ip), vehicle: saline
  T/C: 109 % of control
dose: 100.0 mg/kg/injection, schedule: Q01DX009 (ip), vehicle: saline
  T/C: 105 % of control
dose: 150.0 mg/kg/injection, schedule: Q01DX009 (ip), vehicle: saline
  T/C: 103 % of control

## Nc1ccc2c(c1)CN1C(=O)c3ccccc3C1=N2
dose: 33.0 mg/kg/injection, schedule: Q01DX009 (ip), vehicle: saline with Tween-80
  T/C: 215 % of control (2×) and 265 % of control
dose: 50.0 mg/kg/injection, schedule: Q01DX009 (ip), vehicle: saline with Tween-80
  T/C: 270 % of control and 278 % of control and 297 % of control
dose: 75.0 mg/kg/injection, schedule: Q01DX009 (ip), vehicle: saline with Tween-80
  T/C: 277 % of control and 297 % of control and 336 % of control
dose: 75.0 mg/kg/injection, schedule: Q01DX009 (oral), vehicle: saline with Tween-80
  T/C: 102 % of control
dose: 112.0 mg/kg/injection, schedule: Q01DX009 (ip), vehicle: saline with Tween-80
  T/C: 120 % of control
dose: 112.0 mg/kg/injection, schedule: Q01DX009 (oral), vehicle: saline with Tween-80
  T/C: 104 % of control
dose: 169.0 mg/kg/injection, schedule: Q01DX009 (ip), vehicle: saline with Tween-80
  T/C: 121 % of control
dose: 169.0 mg/kg/injection, schedule: Q01DX009 (oral), vehicle: saline with Tween-80
  T/C: 105 % of control
dose: 252.2 mg/kg/injection, schedule: Q01DX009 (oral), vehicle: saline with Tween-80
  T/C: 118 % of control
dose: 378.2 mg/kg/injection, schedule: Q01DX009 (oral), vehicle: saline with Tween-80
  T/C: 124 % of control

## Cc1c2oc3c(C)ccc(C(=O)N[C@@H]4C(=O)N[C@H](C(C)C)C(=O)N5CCC[C@H]5C(=O)N(C)CC(=O)N(C)[C@@H](C(C)C)C(=O)O[C@H]4C)c3nc-2c(C(=O)N[C@@H]2C(=O)N[C@H](C(C)C)C(=O)N3CCC[C@H]3C(=O)N(C)CC(=O)N(C)[C@@H](C(C)C)C(=O)O[C@H]2C)c(N)c1=O (I: [aThr][dV]P[Sar][NMeV] / II: [aThr][dV]P[Sar][NMeV]; ester I:1-I:C, II:1-II:C; linker I:N-II:N via Actinocin(9to1))
dose: 25.0 micrograms/kg/injection, schedule: Q01DX005 (ip), vehicle: saline + alcohol
  T/C: 124 % of control
dose: 50.0 micrograms/kg/injection, schedule: Q01DX005 (ip), vehicle: saline + alcohol
  T/C: 120 % of control
dose: 100.0 micrograms/kg/injection, schedule: Q01DX005 (ip), vehicle: saline + alcohol
  T/C: 101 % of control

## O=NNc1cnccn1
dose: 11.0 mg/kg/injection, schedule: Q01DX009 (ip), vehicle: water
  T/C: 165 % of control and 171 % of control
dose: 17.0 mg/kg/injection, schedule: Q01DX009 (ip), vehicle: water
  T/C: 201 % of control and 206 % of control
dose: 25.0 mg/kg/injection, schedule: Q01DX009 (ip), vehicle: water
  T/C: 240 % of control and 246 % of control
dose: 37.5 mg/kg/injection, schedule: Q01DX009 (ip), vehicle: water
  T/C: 277 % of control and 313 % of control
dose: 56.0 mg/kg/injection, schedule: Q01DX009 (ip), vehicle: water
  T/C: 107 % of control and 117 % of control

## COc1cc([C@@H]2c3cc4c(cc3[C@@H](OC3OC5COC(C)OC5C(O)C3O)[C@H]3COC(=O)[C@H]23)OCO4)cc(OC)c1O (stereo partly specified)
dose: 18.0 mg/kg/injection, schedule: Q04DX003 (ip), vehicle: Klucel (hydroxypropylcellulose) (HPC)
  T/C: 113 % of control
dose: 27.0 mg/kg/injection, schedule: Q04DX003 (ip), vehicle: Klucel (hydroxypropylcellulose) (HPC)
  T/C: 119 % of control
dose: 40.0 mg/kg/injection, schedule: Q04DX003 (ip), vehicle: Klucel (hydroxypropylcellulose) (HPC)
  T/C: 110 % of control

## c1ccc(OCC2CO2)c(OCC2CO2)c1 (stereo unspecified)
dose: 60.0 mg/kg/injection, schedule: Q01DX005 (ip), vehicle: saline with Tween-80
  T/C: 171 % of control
dose: 120.0 mg/kg/injection, schedule: Q01DX005 (ip), vehicle: saline with Tween-80
  T/C: 164 % of control and 167 % of control
dose: 240.0 mg/kg/injection, schedule: Q01DX005 (ip), vehicle: saline with Tween-80
  T/C: 252 % of control

## O=C(Oc1ccccc1)c1cc(O)c(O)c(O)c1
[1]
  T/C: 102 % of control
dose: 50.0 mg/kg/injection, schedule: Q01DX005 (ip), vehicle: saline with Tween-80
  T/C: 98 % of control
dose: 100.0 mg/kg/injection, schedule: Q01DX005 (ip), vehicle: saline with Tween-80
  T/C: 99 % of control
dose: 200.0 mg/kg/injection, schedule: Q01DX005 (ip), vehicle: saline with Tween-80
  T/C: 112 % of control

## CC[C@@]1(O)C(=O)OCc2c1cc1n(c2=O)Cc2cc3ccccc3nc2-1
dose: 1.5 mg/kg/injection, schedule: Q01DX005 (ip), vehicle: saline with Tween-80
  T/C: 161 % of control
dose: 2.1 mg/kg/injection, schedule: Q01DX005 (ip), vehicle: saline with Tween-80
  T/C: 223 % of control
dose: 3.0 mg/kg/injection, schedule: Q01DX005 (ip), vehicle: saline with Tween-80
  T/C: 200 % of control
dose: 3.6 mg/kg/injection, schedule: Q01DX005 (ip), vehicle: saline with Tween-80
  T/C: 222 % of control
dose: 6.0 mg/kg/injection, schedule: Q01DX005 (ip), vehicle: saline with Tween-80
  T/C: 216 % of control
dose: 6.7 mg/kg/injection, schedule: Q04DX002 (ip), vehicle: saline with Tween-80
  T/C: 198 % of control and 232 % of control
dose: 10.0 mg/kg/injection, schedule: Q04DX002 (ip), vehicle: saline with Tween-80
  T/C: 207 % of control and 232 % of control
dose: 15.0 mg/kg/injection, schedule: Q04DX002 (ip), vehicle: saline with Tween-80
  T/C: 215 % of control and 236 % of control

## Cc1c2ccncc2c(C)c2c1[nH]c1ccccc12
dose: 90.0 mg/kg/injection, schedule: Q04DX002 (ip), vehicle: saline with Tween-80
  T/C: 115 % of control
dose: 134.0 mg/kg/injection, schedule: Q04DX002 (ip), vehicle: saline with Tween-80
  T/C: 156 % of control
dose: 200.0 mg/kg/injection, schedule: Q04DX002 (ip), vehicle: saline with Tween-80
  T/C: 168 % of control
dose: 300.0 mg/kg/injection, schedule: Q04DX002 (ip), vehicle: saline with Tween-80
  T/C: 153 % of control

## COc1cccc(Sc2ccc([N+](=O)[O-])c3no[n+]([O-])c23)c1
dose: 1.56 mg/kg/injection, schedule: Q01DX005 (ip), vehicle: saline with Tween-80
  T/C: 98 % of control
dose: 3.12 mg/kg/injection, schedule: Q01DX005 (ip), vehicle: saline with Tween-80
  T/C: 100 % of control
dose: 6.25 mg/kg/injection, schedule: Q01DX005 (ip), vehicle: saline with Tween-80
  T/C: 107 % of control
dose: 12.5 mg/kg/injection, schedule: Q01DX005 (ip), vehicle: saline with Tween-80
  T/C: 110 % of control
[1]
  T/C: 101 % of control

## N[C@@H](Cc1ccc(N(CCCl)CCCl)cc1)C(=O)O
dose: 0.5 mg/kg/injection, schedule: Q01DX005 (ip), vehicle: saline
  T/C: 171 % of control and 202 % of control
dose: 1.0 mg/kg/injection, schedule: Q01DX005 (ip), vehicle: saline
  T/C: 200 % of control and 202 % of control
dose: 1.62 mg/kg/injection, schedule: Q04DX003 (ip), vehicle: water
  T/C: 207 % of control
dose: 2.0 mg/kg/injection, schedule: Q01DX005 (ip), vehicle: saline
  T/C: 202 % of control and 297 % of control
dose: 2.7 mg/kg/injection, schedule: Q04DX003 (ip), vehicle: water
  T/C: 215 % of control
dose: 4.0 mg/kg/injection, schedule: Q01DX005 (ip), vehicle: saline
  T/C: 202 % of control and 297 % of control
dose: 4.5 mg/kg/injection, schedule: Q04DX003 (ip), vehicle: water
  T/C: 290 % of control
dose: 7.5 mg/kg/injection, schedule: Q04DX003 (ip), vehicle: water
  T/C: 109 % of control
dose: 8.0 mg/kg/injection, schedule: Q01DX005 (ip), vehicle: saline
  T/C: 297 % of control
dose: 12.5 mg/kg/injection, schedule: Q04DX003 (ip), vehicle: water
  T/C: 95 % of control
